According to PubChem BioAssay (NCI):
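1) Cells in 96-well plates. 2) Compound, 48 h, 5 concentrations. 3) Linear interpolation between surrounding doses. 4) Unreached endpoint = highest concentration. The concentration for 50% growth inhibition is given as GI50. TGI is the concentration that stops growth completely.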

Assays:
Assay in all cases: DTP human tumour cell line panel, 48 h
DMS 114 small cell lung = tested on: DMS 114 small cell lung
MOLT-4 leukemia = tested on: MOLT-4 leukemia
CAKI-1 renal = tested on: CAKI-1 renal
M14 melanoma = tested on: M14 melanoma
IGROV1 ovarian = tested on: IGROV1 ovarian
HT29 colon = tested on: HT29 colon
M19-MEL melanoma = tested on: M19-MEL melanoma
UACC-62 melanoma = tested on: UACC-62 melanoma
ACHN renal = tested on: ACHN renal
HCC-2998 colon = tested on: HCC-2998 colon

Compound | TGI (DMS 114 small cell lung) [µM] | TGI (MOLT-4 leukemia) [µM] | TGI (CAKI-1 renal) [µM] | TGI (M14 melanoma) [µM] | TGI (IGROV1 ovarian) [µM] | TGI (HT29 colon) [µM] | TGI (M19-MEL melanoma) [µM] | TGI (UACC-62 melanoma) [µM] | TGI (ACHN renal) [µM] | TGI (HCC-2998 colon) [µM] | GI50 (MOLT-4 leukemia) [µM] | GI50 (M14 melanoma) [µM] | GI50 (IGROV1 ovarian) [µM] | GI50 (HT29 colon) [µM] | GI50 (M19-MEL melanoma) [µM] | GI50 (UACC-62 melanoma) [µM] | GI50 (ACHN renal) [µM] | GI50 (HCC-2998 colon) [µM] | GI50 (CAKI-1 renal) [µM]
C=CCC1=C(C)C[C@@H]2CCC(=O)C=C12 | > 100 | > 100 | > 100 | > 100 | > 100 | > 100 | > 100 | > 100 | > 100 | – | – | – | – | – | – | – | – | – | –
CC1=NN(C(=O)c2ccc(Cl)cc2)C(=O)/C1=C/c1ccccc1O | > 100 | > 100 | > 100 | > 100 | > 100 | > 100 | > 100 | > 100 | > 100 | > 100 | – | – | – | – | – | – | – | – | –
Cc1cc(N(CCC#N)CCC#N)ccc1N=Nc1ccc(Br)cc1 | > 71.3 | > 58.8 | > 51.4 | > 66 | > 57.3 | > 100 | > 100 | > 87.2 | > 42.2 | > 79.3 | – | – | – | – | – | – | – | – | –
COc1ccc(/C(Cl)=C/c2cc(OC)ccc2OC)cc1 | > 100 | > 100 | – | > 100 | > 100 | > 100 | > 100 | > 100 | > 100 | > 100 | – | – | – | – | – | – | – | – | –
CC(=O)OCC(=O)[C@@]12OC(C)(C)O[C@@H]1C[C@H]1[C@@H]3CC(C=O)=C4C=C(OCCCl)CC[C@]4(C)[C@@]3(F)[C@@H](O)C[C@@]12C | > 100 | > 100 | – | 61.7 | > 100 | 36.8 | > 100 | > 100 | > 100 | 29.5 | – | – | – | – | – | – | – | – | –
CC(=O)O[C@]1(C)OC(=O)[C@@H](CC(C)C)N1[N+](=O)[O-] | > 100 | > 100 | – | > 100 | > 100 | > 100 | > 100 | > 100 | > 100 | > 100 | – | – | – | – | – | – | – | – | –
CC(C)(C)C(=CS(=O)/N=C/c1ccccc1)C(C)(C)C (stereo not drawn) | 82.1 | 54.3 | > 100 | > 100 | 71.2 | > 100 | > 100 | – | > 100 | – | – | – | – | – | – | – | – | – | –
CCOC(=O)N1CCc2cc(OC)c(OC)cc2/C1=C\c1ccc(OC)c(OC)c1 | > 100 | 91.1 | – | > 10 | > 100 | 40.8 | 63.3 | 63.4 | 94 | > 100 | – | – | – | – | – | – | – | – | –
C=CCO/N=C(\OC(=O)c1ccc([N+](=O)[O-])cc1)c1ccccc1 | > 100 | – | > 100 | > 100 | > 100 | > 100 | > 100 | > 100 | > 100 | > 100 | – | – | – | – | – | – | – | – | –
CC(=O)[O-].[Mn+3].[O-]c1ccccc1C=NCCNCCN=Cc1ccccc1[O-] | – | > 100 | – | > 100 | > 100 | > 100 | > 100 | > 100 | > 100 | – | > 100 | > 100 | > 100 | > 100 | > 100 | > 100 | > 100 | – | –
O=C1/C(=C/c2ccccc2)CN(C(=O)CCN2CCCC2)C/C1=C\c1ccccc1 | 4.66 | 1.68 | 14.8 | 3.62 | 7.75 | 2.54 | 3.79 | 3.45 | 4.78 | 3.22 | – | – | – | – | – | – | – | – | –
COc1ccc(C(=O)C(CC2C(=O)NC(=O)NC2=O)c2ccc(OC)cc2)cc1 (stereo not drawn) | > 100 | > 100 | > 100 | > 100 | > 100 | > 100 | > 100 | > 100 | > 100 | > 100 | – | – | – | – | – | – | – | – | –
COC(=O)COc1ccc(/C=C2/N=C(c3ccccc3)N(c3c(C)n(C)n(-c4ccccc4)c3=O)C2=O)cc1 | – | 59.8 | > 100 | > 100 | 42.3 | 35.7 | – | 32.1 | 31.4 | 33.4 | 23 | 32.5 | 23.6 | 18.3 | – | 17.6 | 17.6 | 16.9 | > 100
C=C1CCC2(C#N)[C@H]3[C@H](CC[C@@H]2C)[C@@H](C)C[C@@H](CC(C)(C)NC(=O)CN2CCC2=O)[C@H]13 (stereo partly drawn) | – | 70.3 | 28.8 | 17.8 | 23 | 24.8 | – | 20.1 | 51.4 | 22.8 | 13.8 | 4.56 | 6.03 | 10.5 | – | 6.54 | 11.3 | 7 | 10.1
